System: hypertensive postmenopausal women
Experiment: Post hoc analysis of blood pressure in women with elevated BP at baseline, multicenter 1-year endometrium study, no ACE inhibitor
Type: in vivo, human
Settings: after 11 weeks; subset with baseline systolic BP>=140 mm Hg and or diastolic BP>=90 mm Hg
Protocol: Administration of DRSP/E2 to Hypertensive Postmenopausal Women not being Treated with an ACE Inhibitor.
In a multicenter, double-blind randomized study examining the effect on the endometrium of 1142 postmenopausal women treated for 1 year with 1 of 4 doses of DRSP (0.5,1,2, and 3 mg) compared with E2 alone, mean systolic and diastolic blood pressure decreased from baseline for all treatment groups.

C[C@]12CC[C@@H]3c4ccc(O)cc4CC[C@H]3[C@@H]1CC[C@@H]2O [E2, 17-β-estradiol]
mean decrease in systolic blood pressure: −3.7 mm Hg
